Patent publication US20060093578A1, “Method and composition for treating multiple sclerosis” (Kyorin Pharmaceutical Co., Ltd., priority 2004, published 2006)

How the values were obtained:
[1] = system: IL-12 p70 production by microglia; assay: IL-12 p70 production by LPS + IFNγ-stimulated microglia (ELISA); type: cell-based, C57BL/6J mice; settings: for IL-12 p70: mean ± SD (n = 9); for IL-12 production by microglia: LPS and IFNγ stimulation, graded doses (FIG. 1, FIG. 9A)
Description: Samples used for the experiments were prepared as described below. […] The cultures were maintained with Dulbecco's modified Eagle's minimum essential medium supplemented with 10% fetal calf serum, 5 μg/ml bovine insulin, and 0.2% glucose.
The supernatant was then collected and stored at −70° C. until assessed. From the remaining cells, total RNA was extracted, following the guanidinium thiocyanate method (RNeasy Mini Kit;QIAGEN). The cDNA encoding mouse TNFα, IL-1β, IL-6, iNOS (inducible nitric oxide synthetase), and IL-12, was generated by reverse transcription-polymerase chain reaction (RT-PCR) using Superscript II (INVITROGEN), and Ampli Taq DNA polymerase (APPLIED BIOSYSTEMS) with the specific primers shown in Table 1.
Cytokine production was measured with an ELISA kit specific for IL1, IL-6, TNFα, and IL-12 p70 (TECHNE Corp. MN). NO production was determined by Griess reaction. Briefly, a 50 μl aliquot of supernatants were mixed with an equal volume of Griess reagent (0.1% N-ethylenediarnine dihydrochloride, 1% sulfanilamide, and 2.5% phosphoric acid) and incubated for 15 minutes at room temperature, and the absorbance was read at 540 nm on a microtiter plate reader. Nitrite concentrations were calculated from a standard curve of NaNO2 (Yoshikawa M, Suzumura A, Tamaru T, et al. “Effects of phosphodiesterase inhibitors on microglia.” Multiple Scler 1999;5: 126-133, the contents of which are hereby incorporated by reference in their entirety).

[2] = system: peripheral blood mononuclear cells; settings: with IFNβ, synergistically; PBMC from patients with active MS; clinical trial; cited from earlier work
[3] = microglia + LPS (1 μg/mL) + IFNγ (1 ng/mL) + IFNβ 10^2 U/mL, agent 1 μM
[4] = microglia + LPS (1 μg/mL) + IFNγ (1 ng/mL) + IFNβ 10^2 U/mL, agent 10 μM
[5] = microglia + LPS (1 μg/mL) + IFNγ (1 ng/mL) + IFNβ 10^2 U/mL, agent 100 μM, detection limit 7 pg/mL
[6] = microglia + LPS (1 μg/mL) + IFNγ (1 ng/mL), agent 1 μM, stimulated control 118 ± 13
[7] = microglia + LPS (1 μg/mL) + IFNγ (1 ng/mL), agent 10 μM, stimulated control 118 ± 13
[8] = microglia + LPS (1 μg/mL) + IFNγ (1 ng/mL), agent 100 μM, detection limit 7 pg/mL

SMILES | IL-12 p70 [1, 3] [pg/mL] | IL-12 p70 [1, 4] [pg/mL] | IL-12 p70 [1, 5] | IL-12 p70 [1, 6] [pg/mL] | IL-12 p70 [1, 7] [pg/mL] | IL-12 p70 [1, 8] | anti-inflammatory cytokine IL-10 [2] | production of inflammatory cytokines [2] | IL-12 production by microglia [1]
CC(C)C(=O)c1c(C(C)C)nn2ccccc12 [Ibudilast, ibudilast] | 48 ± 11 | 43 ± 6 | <7^a** pg/mL | 53 ± 4 | 48 ± 5 | <7^a* pg/mL | – | – | –
C=C[C@@]1(C)CC(=O)[C@]2(O)[C@@]3(C)[C@@H](O)CCC(C)(C)[C@@H]3[C@H](O)[C@H](OC(C)=O)[C@@]2(C)O1 [forskoline, forskolin] | 47 ± 10 | 34 ± 6 | <7^a** pg/mL | – | – | – | – | – | –
CC(=O)CCCCn1c(=O)c2c(ncn2C)n(C)c1=O [pentoxifylline] | – | – | – | – | – | – | up-regulate | reduce | –
CCCC(=O)Nc1ncnc2c1ncn2[C@@H]1O[C@@H]2COP(=O)(O)O[C@H]2[C@H]1OC(=O)CCC [dbcAMP, dibutyryl cAMP] | – | – | – | 122 ± 23 | 59 ± 18 | 23 ± 8 pg/mL | – | – | dose-dependently suppressed
Cc1[nH]c(=O)c(C#N)cc1-c1ccc2nccn2c1 [Orprinone, orprinone] | 67 ± 14 | 44 ± 7 | 40 ± 9 pg/mL | 107 ± 20 | 88 ± 14 | 32 ± 11 pg/mL | – | – | dose-dependently suppressed
